Assay results: ChEMBL document CHEMBL6083240, “Design, synthesis and biological evaluation of arylpropylamine derivatives as potential multi-target antidepressants” (Bioorg Med Chem, 2024)
Calls of active or inactive are those of the source. The rule behind the calls is not given here.

How the values were obtained:
D(3) dopamine receptor = D(3) dopamine receptor (Homo sapiens, UniProt P35462); test: Binding affinity to D3 receptor (unknown origin)
Mus musculus [1] = test: Antidepressant activity in Kunming mouse assessed as effect on spontaneous locomotor activity by measuring total travel distance at 7.5 to 60 mg/kg, po administered for 60 mins and measured for 15 mins; type: functional, organism-based; conditions: dose lower […], dose upper 60.0 mg/kg
[2] = biological target: 5-hydroxytryptamine receptor 1A (Homo sapiens, UniProt P08908); test: Binding affinity to 5-HT1A receptor (unknown origin)
[3] = MRTlast in CD1 mouse at 2 mg/kg, iv measured upto 10 hrs by LC-MS analysis; type: ADME, organism-based; conditions: in vivo
Mus musculus [4] = test: Antidepressant activity in Kunming mouse chronic unpredictable mild stress model assessed as increase in sucrose preference at 0.5 to 6 mg/kg, IG measured after 1 week; type: functional, organism-based; conditions: dose 0.5-6 mg/kg, time 1.0 weeks
[5] = biological target: Sodium-dependent serotonin transporter (Rattus norvegicus) (UniProt P31652); test: Antagonist activity at rat cerebral cortex membrane SERT at 10 uM incubated for 10 mins in presence of [3H]5-HT relative to control; type: cell membranes; parameters: scale not given: the % may be the effect or the level left; conditions: filed as antagonist
Sequence of Sodium-dependent serotonin transporter (Rattus norvegicus) (P31652 whole entry): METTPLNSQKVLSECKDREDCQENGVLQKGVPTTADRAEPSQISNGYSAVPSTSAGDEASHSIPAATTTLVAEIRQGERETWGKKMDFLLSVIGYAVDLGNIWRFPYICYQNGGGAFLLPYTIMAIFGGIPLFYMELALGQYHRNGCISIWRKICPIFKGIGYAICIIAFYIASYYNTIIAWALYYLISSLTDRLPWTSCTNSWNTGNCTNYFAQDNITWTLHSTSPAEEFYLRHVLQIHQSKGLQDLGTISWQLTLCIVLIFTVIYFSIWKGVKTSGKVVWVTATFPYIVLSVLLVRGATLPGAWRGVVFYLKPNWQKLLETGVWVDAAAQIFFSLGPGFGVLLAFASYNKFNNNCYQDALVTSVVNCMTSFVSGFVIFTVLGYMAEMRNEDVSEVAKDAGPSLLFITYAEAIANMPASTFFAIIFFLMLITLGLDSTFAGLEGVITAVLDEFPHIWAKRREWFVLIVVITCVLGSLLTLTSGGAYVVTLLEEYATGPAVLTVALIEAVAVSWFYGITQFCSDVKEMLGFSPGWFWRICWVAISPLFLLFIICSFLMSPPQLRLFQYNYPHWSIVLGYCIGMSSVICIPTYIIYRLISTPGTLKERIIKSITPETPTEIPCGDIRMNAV

Mus musculus [6] = test: Antidepressant activity in IG dosed Kunming mouse assessed as decrease in immobility time by measuring minimal effective dose by forced swimming test; type: functional
Histamine H2 receptor = Histamine H2 receptor (Homo sapiens, UniProt P25021); test: Binding affinity to H2 receptor (unknown origin)
[7] = biological target: Sigma intracellular receptor 2 (Homo sapiens, UniProt Q5BJF2); test: Binding affinity to sigma 2 receptor (unknown origin)
Sequence of Sigma intracellular receptor 2 (Q5BJF2 whole entry): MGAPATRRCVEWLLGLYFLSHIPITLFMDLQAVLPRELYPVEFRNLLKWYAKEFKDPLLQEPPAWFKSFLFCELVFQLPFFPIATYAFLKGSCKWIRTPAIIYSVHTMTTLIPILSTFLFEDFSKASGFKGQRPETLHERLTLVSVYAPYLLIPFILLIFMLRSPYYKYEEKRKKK

[8] = biological target: Sodium-dependent serotonin transporter (Rattus norvegicus) (UniProt P31652); test: Agonist activity at rat cerebral cortex membrane SERT at 10 uM incubated for 10 mins in presence of [3H]5-HT relative to control; type: cell membranes
histamine H1 receptor = test: Displacement of [3H]-pyrilamine from H1 receptor in guinea pig cerebellum membrane incubated for 60 mins by liquid scintillation counting method; type: toxicity, cell membranes, Cavia porcellus; conditions: probe [3H]-pyrilamine
[9] = biological target: Alpha-2A adrenergic receptor (Homo sapiens, UniProt P08913); test: Binding affinity to alpha-2 adrenergic receptor (unknown origin)
[10] = AUC(0 to t) in CD1 mouse at 15 mg/kg, po measured upto 24 hrs by LC-MS analysis; type: ADME, organism-based; conditions: in vivo
[11] = biological target: Voltage-gated inwardly rectifying potassium channel KCNH2 (Homo sapiens, UniProt Q12809); test: Inhibition of human ERG expressed in HEK293 cells by whole-cell patch clamp method; type: toxicity, cell-based
Sequence of Voltage-gated inwardly rectifying potassium channel KCNH2 (Q12809 whole entry): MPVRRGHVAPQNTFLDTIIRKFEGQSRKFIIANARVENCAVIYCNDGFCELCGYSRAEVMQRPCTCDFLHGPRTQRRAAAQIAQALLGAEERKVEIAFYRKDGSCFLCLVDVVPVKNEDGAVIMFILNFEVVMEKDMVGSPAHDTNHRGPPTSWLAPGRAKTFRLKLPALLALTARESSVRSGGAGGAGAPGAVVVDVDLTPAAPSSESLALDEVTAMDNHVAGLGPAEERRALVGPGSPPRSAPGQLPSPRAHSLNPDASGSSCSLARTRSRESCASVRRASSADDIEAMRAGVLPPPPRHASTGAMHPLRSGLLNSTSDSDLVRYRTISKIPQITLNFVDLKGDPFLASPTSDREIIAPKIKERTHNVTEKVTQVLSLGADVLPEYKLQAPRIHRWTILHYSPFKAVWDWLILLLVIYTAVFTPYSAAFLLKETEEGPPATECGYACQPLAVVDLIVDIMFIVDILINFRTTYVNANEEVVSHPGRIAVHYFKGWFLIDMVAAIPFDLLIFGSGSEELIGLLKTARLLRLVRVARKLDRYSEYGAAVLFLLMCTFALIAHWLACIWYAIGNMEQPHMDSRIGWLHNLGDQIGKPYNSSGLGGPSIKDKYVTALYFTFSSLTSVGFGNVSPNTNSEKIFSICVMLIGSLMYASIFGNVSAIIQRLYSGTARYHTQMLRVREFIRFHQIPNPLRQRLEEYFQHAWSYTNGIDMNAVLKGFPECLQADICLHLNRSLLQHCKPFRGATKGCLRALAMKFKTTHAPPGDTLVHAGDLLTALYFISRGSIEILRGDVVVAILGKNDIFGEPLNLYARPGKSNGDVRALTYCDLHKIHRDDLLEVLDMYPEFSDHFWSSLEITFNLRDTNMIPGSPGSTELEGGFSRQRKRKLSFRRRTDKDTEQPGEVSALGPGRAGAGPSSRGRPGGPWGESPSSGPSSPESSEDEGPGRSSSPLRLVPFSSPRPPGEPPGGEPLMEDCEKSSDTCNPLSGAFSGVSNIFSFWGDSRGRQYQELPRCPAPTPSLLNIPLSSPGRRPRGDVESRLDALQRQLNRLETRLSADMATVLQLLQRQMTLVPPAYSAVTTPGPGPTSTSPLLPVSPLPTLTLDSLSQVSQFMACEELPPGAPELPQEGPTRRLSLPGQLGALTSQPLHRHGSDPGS

Mus musculus [12] = test: Antidepressant activity in IG dosed Kunming mouse assessed as decrease in immobility time by measuring minimal effective dose by tail suspension test; type: functional
[13] = biological target: 5-hydroxytryptamine receptor 2C (Homo sapiens, UniProt P28335); test: Antagonist activity at 5-HT2C in HEK293 cells incubated for 60 mins by FLIPR assay; type: cell-based
[14] = biological target: Muscarinic acetylcholine receptor M3 (Homo sapiens, UniProt P20309); test: Binding affinity to M3 receptor (unknown origin)
Sequence of Muscarinic acetylcholine receptor M3 (P20309 whole entry): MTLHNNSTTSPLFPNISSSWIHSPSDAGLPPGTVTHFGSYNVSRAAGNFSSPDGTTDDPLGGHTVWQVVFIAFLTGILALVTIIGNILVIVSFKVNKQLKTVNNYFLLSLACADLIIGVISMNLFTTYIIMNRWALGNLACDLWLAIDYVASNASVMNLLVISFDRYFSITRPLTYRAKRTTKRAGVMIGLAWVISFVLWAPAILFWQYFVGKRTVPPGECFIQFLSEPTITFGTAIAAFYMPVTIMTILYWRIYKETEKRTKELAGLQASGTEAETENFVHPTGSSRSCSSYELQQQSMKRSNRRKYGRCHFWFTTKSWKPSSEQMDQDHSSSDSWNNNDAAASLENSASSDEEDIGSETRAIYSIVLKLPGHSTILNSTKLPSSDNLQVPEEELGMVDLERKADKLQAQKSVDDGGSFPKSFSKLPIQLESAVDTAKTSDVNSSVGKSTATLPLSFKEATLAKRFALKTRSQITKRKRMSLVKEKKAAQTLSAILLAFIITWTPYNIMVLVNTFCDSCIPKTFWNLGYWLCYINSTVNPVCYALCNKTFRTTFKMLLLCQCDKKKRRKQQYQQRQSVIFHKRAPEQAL

[15] = biological target: 5-hydroxytryptamine receptor 6 (Homo sapiens, UniProt P50406); test: Binding affinity to 5-HT6 receptor (unknown origin)
Sequence of 5-hydroxytryptamine receptor 6 (P50406 whole entry): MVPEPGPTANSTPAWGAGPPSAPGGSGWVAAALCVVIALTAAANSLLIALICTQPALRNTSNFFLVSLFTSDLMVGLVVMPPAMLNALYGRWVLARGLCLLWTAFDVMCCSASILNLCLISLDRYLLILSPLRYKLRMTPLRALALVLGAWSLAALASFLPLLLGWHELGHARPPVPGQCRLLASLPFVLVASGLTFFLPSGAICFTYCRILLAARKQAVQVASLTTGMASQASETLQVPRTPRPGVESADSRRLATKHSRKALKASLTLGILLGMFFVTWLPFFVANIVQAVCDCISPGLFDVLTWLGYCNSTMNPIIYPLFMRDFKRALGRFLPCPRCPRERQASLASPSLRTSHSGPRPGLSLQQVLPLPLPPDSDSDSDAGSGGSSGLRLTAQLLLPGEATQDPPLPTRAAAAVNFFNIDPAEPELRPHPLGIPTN

[16] = biological target: 5-hydroxytryptamine receptor 2A (Rattus norvegicus, UniProt P14842); test: Displacement of [3H]-ketanserin from 5-HT2A in rat cerebral cortex incubated for 15 mins by liquid scintillation counting method; type: tissue-based
Sequence of 5-hydroxytryptamine receptor 2A (P14842 whole entry): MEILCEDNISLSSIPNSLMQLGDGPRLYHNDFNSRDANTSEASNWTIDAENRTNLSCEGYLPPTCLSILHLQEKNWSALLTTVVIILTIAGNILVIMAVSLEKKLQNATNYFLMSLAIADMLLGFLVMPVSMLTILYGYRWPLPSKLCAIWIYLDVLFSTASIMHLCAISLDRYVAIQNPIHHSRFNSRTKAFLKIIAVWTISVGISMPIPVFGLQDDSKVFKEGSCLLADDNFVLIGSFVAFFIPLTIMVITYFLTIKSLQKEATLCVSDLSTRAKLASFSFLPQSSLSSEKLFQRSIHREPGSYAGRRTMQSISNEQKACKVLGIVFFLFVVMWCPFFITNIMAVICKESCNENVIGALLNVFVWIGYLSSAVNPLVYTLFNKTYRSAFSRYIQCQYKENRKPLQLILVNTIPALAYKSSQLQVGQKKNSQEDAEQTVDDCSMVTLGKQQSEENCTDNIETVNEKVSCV

Transporter = Transporter (Rattus norvegicus, UniProt Q63380); test: Antagonist activity at rat cerebral cortex membrane NET incubated for 10 mins in presence of [3H]-NE; type: cell membranes
Sequence of Transporter (Q63380 whole entry): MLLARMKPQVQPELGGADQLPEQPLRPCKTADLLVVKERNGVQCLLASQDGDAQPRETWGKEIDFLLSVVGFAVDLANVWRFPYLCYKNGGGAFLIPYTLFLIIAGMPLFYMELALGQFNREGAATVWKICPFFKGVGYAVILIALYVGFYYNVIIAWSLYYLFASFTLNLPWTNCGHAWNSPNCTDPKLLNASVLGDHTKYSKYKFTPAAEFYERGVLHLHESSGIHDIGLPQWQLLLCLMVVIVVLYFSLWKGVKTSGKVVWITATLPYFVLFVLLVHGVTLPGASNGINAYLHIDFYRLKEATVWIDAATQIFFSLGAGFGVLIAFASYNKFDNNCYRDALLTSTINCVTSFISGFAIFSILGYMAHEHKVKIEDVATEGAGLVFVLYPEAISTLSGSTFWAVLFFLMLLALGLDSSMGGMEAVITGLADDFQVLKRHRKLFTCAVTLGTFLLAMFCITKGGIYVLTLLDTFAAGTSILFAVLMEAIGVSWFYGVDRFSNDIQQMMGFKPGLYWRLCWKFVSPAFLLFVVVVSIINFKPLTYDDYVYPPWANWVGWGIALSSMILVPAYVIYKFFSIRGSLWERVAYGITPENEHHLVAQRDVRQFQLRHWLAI

[17] = biological target: T1, 5-hydroxytryptamine receptor 2C (Homo sapiens) (UniProt P28335); test: Agonist activity at 5-HT2C in HEK293 cells at 10 uM incubated for 60 mins by FLIPR assay relative to control; type: functional, cell-based; conditions: filed as agonist
T1 sequence (whole entry): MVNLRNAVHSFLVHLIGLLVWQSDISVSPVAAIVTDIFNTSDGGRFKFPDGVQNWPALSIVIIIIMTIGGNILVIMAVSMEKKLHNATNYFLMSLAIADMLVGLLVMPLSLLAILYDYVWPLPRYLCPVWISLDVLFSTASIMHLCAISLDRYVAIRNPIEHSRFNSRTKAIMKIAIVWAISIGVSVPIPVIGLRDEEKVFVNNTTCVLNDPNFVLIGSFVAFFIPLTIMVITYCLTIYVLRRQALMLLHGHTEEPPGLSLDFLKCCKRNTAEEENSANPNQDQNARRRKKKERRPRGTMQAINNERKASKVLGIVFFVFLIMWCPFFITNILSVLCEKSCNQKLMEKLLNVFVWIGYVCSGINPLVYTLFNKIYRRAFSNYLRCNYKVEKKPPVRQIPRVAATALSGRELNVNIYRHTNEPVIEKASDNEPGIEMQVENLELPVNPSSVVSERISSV

[18] = Oral bioavailability in CD1 mouse at 15 mg/kg measured upto 24 hrs by LC-MS analysis; type: ADME, organism-based; conditions: in vivo
[19] = AUC(0 to t) in CD1 mouse at 2 mg/kg, iv measured upto 10 hrs by LC-MS analysis; type: ADME, organism-based; conditions: in vivo
[20] = biological target: Sigma non-opioid intracellular receptor 1 (Homo sapiens, UniProt Q99720); test: Binding affinity to sigma 1 receptor (unknown origin)
Sequence of Sigma non-opioid intracellular receptor 1 (Q99720 whole entry): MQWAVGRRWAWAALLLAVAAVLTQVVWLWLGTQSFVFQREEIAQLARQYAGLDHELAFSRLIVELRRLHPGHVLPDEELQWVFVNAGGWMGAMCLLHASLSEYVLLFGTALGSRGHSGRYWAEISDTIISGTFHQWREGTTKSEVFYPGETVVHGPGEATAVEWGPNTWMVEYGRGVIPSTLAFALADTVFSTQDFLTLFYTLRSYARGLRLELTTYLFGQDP

[21] = biological target: T2, Alpha-1A adrenergic receptor (Rattus norvegicus, UniProt P43140); test: Displacement of [3H]-prazosin from adrenergic alpha-1 receptor in rat cerebral cortex incubated for 60 mins by liquid scintillation counting method; type: toxicity, tissue-based
T2 sequence (P43140 whole entry): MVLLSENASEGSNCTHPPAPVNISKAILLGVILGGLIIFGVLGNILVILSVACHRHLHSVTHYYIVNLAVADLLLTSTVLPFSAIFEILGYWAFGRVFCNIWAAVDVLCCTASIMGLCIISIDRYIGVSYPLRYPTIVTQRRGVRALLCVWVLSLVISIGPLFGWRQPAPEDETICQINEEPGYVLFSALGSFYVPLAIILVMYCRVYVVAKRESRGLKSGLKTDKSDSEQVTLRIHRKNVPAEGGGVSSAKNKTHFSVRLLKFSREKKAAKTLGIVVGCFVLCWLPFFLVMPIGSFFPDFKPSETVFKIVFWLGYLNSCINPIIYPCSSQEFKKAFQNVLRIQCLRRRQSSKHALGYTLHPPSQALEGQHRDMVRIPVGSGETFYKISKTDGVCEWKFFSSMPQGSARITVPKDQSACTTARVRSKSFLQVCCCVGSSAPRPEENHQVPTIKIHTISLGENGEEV

Mus musculus [22] = test: Antidepressant activity in Kunming mouse chronic unpredictable mild stress model assessed as increase in sucrose preference at 4 mg/kg, IG measured after 2 weeks; type: functional, organism-based
[23] = Half-life in CD1 mouse at 2 mg/kg, iv measured upto 10 hrs by LC-MS analysis; type: ADME, organism-based; conditions: in vivo
[24] = Half-life in CD1 mouse at 15 mg/kg, po measured upto 24 hrs by LC-MS analysis; type: ADME, organism-based; conditions: in vivo
[25] = Acute toxicity in po dosed Sprague-Dawley rat assessed as mortality rate measured after 24 hrs; type: organism-based; conditions: in vivo
Rattus norvegicus = test: Antidepressant activity against ig dosed ACTH-induced treatment resistant depression in Sprague-Dawley rat model assessed as reduction in immobility time by forced swimming test; type: functional; conditions: po

Sequence of D(3) dopamine receptor (P35462 whole entry): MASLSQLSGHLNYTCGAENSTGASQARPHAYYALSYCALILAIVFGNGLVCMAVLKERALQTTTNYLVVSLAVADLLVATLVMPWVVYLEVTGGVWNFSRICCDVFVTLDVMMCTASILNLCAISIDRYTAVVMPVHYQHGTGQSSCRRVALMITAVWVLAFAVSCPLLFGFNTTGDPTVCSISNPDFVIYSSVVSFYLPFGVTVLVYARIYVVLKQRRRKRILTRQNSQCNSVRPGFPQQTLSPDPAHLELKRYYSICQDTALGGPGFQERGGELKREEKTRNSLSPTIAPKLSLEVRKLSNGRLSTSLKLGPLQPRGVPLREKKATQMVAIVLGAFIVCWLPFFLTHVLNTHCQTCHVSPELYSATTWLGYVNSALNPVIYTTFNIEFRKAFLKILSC

CN(C)CC[C@@H](Oc1cccc2c1OCO2)c1ccc(F)cc1.O=C(O)C(=O)O
Ki (D(3) dopamine receptor): > 1000 nM
Activity (Mus musculus [1]): inactive
Ki [2]: > 1000 nM
MRT last at 10 h [3]: 1.1 h
Activity (Mus musculus [4]): inactive
Activity [5]: 99.7%
Activity (Mus musculus [6]): Dose-dependent-effect
minimal effective dose (Mus musculus [6]; po, read-out: MED): 6.4 mg/kg
Ki (Histamine H2 receptor): > 1000 nM
Ki [7]: > 1000 nM
Activity [8]: 2.2%
Ki at 60 min (histamine H1 receptor): 1000 nM
Ki [9]: > 1000 nM
AUC(0-t) at 24 h [10]: 462 ng·h/mL
IC50 [11]: 1230 nM
Activity (Mus musculus [12]): Dose-dependent-effect
minimal effective dose (Mus musculus [12]; po, read-out: MED): 6.4 mg/kg
IC50 [13]: 87.5 nM
Ki [14]: > 1000 nM
Ki [15]: > 1000 nM
Ki [16]: 26.4 nM
IC50 (Transporter): 87 nM
Activity [17]: 18.1%
bioavailability [18]: 20.3%
AUC(0-t) at 10 h [19]: 304 ng·h/mL
Ki [20]: > 1000 nM
Ki [21]: 1450 nM
Activity (Mus musculus [22]): Active
half-life [23]: 1.2 h
half-life [24]: 1.8 h
LD50 at 24 h [25]: 560 mg/kg
ED50 (Rattus norvegicus): 23.1 mg/kg
